Source: patent US12478693B2, “Compositions and methods for detection of traumatic brain injury” (Amydis, Inc., priority 2018, dated 2025)
“Also recorded” adds a separate entry of the source.

Experiments:
Format in all cases: binding
[1] = test system: amyloid-beta (Aβ) deposits in human retinal tissue; test: Ex vivo fluorescence staining of post-mortem human retina with ASF probe; conditions: AD and cognitively normal patients, listed as ASF
Description: Post-mortem retinal tissue and brains of humans with confirmed or probable Alzheimer's disease (AD) were obtained and examined by staining amyloid-beta (A3) with a test amyloid sensitive fluorescent probe (ASF), Compound 1. This example was conducted to determine if the ASF could identify patients with amyloid burden in the brain through fluorescence inspection of retinas stained with the ASF.
While this example could observe these deposits in both AD (panels A-B) and cognitively normal patients (panels C-D), there is a qualitative correlation between the density of these deposits in the retina and the degree of amyloidosis in the brain (as estimated by immunohistochemistry (IHC) with anti-Aβ antibodies).
IHC staining of retinal cryosections provided further evidence for the existence of Aβ in retinal deposits with similar location, size, and morphology as the deposits found in retinal flat mounts stained with the ASF.

[2] = target: T1, Aβ deposits in retina (Mus musculus, UniProt P12023); test: Ex vivo detection of retinal Aβ aggregation in CCI mouse model (Example 4)
T1 construct: denotes peptides of about 36 to 43 amino acids; from tissue; host or cells: mouse retina dissected 24 h after CCI
T1 sequence (P12023 672-713 limits assumed): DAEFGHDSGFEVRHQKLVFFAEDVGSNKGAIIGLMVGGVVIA
Description: Mice were subjected to a controlled cortical impact (CCI). The CCI model applies a controlled impact to the intact dura after a craniotomy and is a commonly used TBI animal model. Mice were anesthetized, the head was mounted in a stereotaxic frame, and a craniotomy was performed over the right side of the frontal cortex. Using a stereotaxic impactor, mice received an impact on the right side of the frontal cortex using a 3 m/s velocity, 1 mm depth, and 3 mm diameter piston. After injury, the incision was closed with staples, anesthesia was terminated, and the animal was placed in a heated cage to maintain normal core temperature.
Sham injury consisted of exposure to anesthesia, stereotaxic mounting, skin and fascia reflection, and closing of incision with staples. Mice were then euthanized 24 hours after injury and retinal tissue were dissected for further analysis.
Retina from mice were extracted and stained with Compound 1 along with a 6E10 antibody, a sequence specific antibody for Aβ.
Mice were subjected to a controlled cortical impact (CCI). The CCI model applies a controlled impact to the intact dura after a craniotomy and is a commonly used TBI animal model. Mice were anesthetized, the head was mounted in a stereotaxic frame, and a craniotomy was performed over the right side of the frontal cortex. […]

[3] = test system: aggregated proteins in retina; test: Retina staining after controlled cortical impact (Example 3); conditions: 3 month old C5BL/6 mice, 24 h after CCI
From the text: 3 month old C5BL/6 mice were briefly anesthetized with isoflurane and placed in a stereotaxic frame. Mice were subjected to craniotomy over the right primary and secondary motor cortex and parietal-temporal cortex (+1 to −4 anterior-posterior from the bregma, 4 mm laterally from the sagittal suture). Half of the mice were not further injured to use as control specimen. For the remaining mice a 3 mm diameter piston was centered over the motor cortex approximately +0.5 to −2.5 mm from the bregma and 3 mm lateral to the sagittal suture. Using a stereotaxic impactor (Impact One, myNeuroLab.com), the piston was accelerated at a speed of 3 m/sec to an impact depth of 1 mm below the cortical surface. After 24 h, mice were euthanized and brain and eyes were collected. Retinas were extracted, stained with DAPI, Compound 1, and 6E10 antibody, and compared.
Retinas were mounted on slides and washed with phosphate-buffered saline (PBS) two times for five minutes each time. Retinas were exposed to 98% formic acid for one minute then washed two times with distilled water for five minutes each time. The retinas were then equilibrated in 1×PBS for 15 minutes. Retinas were exposed to 10% goat/donkey serum in 1× phosphate-buffered saline with Tween® 20 (PBST) for 1 h. Retinas were then incubated with […] in 10% goat serum in 1×PBST at 4° C. overnight. […]

[4] = test system: amyloid beta in retinal tissue; test: Staining of retinal tissue of TBI blast mouse model; conditions: for fluorescent labelling of retinal Aβ deposits: blast mouse model, 24 hours after injury; for fluorescent labelling of retinal tissue: non-injured (normal) mouse
Description: This example was conducted to determine whether the ASF Compound 1 could detect AR in the retina of a TBI mouse model after injury.
Retinal tissue of a blast mouse model 24 hours after injury and a non-injured mouse were stained with the ASF and co-stained with an […] (6E10).

[5] = test system: amyloid beta in brain tissue; test: Staining of brain tissue of TBI blast mouse model
From the text: Based on this evidence, this example further attempted to confirm that […] was also detected in the brain tissue of the same TBI blast mouse model. […] The evidence of Aβ in the brain tissue complements what was found in the retinal tissue of the same injured mouse. It also supports previous studies of the correlation between the brain and retina in the accumulation of Aβ.

Q: `COCCOCCOCCNC(=O)/C(C#N)=C/c1ccc2cc(N3CCCCC3)ccc2c1` [Compound 1, (E)-2-cyano-N-(2-(2-(2-methoxyethoxy)ethoxy)ethyl)-3-(6-(piperidin-1l-yl)naphthalen-2-yl)acrylamide] was tested. Which “fluorescent visualization / binding of amyloid deposits in flat mounted retina” value [1] did it give?
A: dense deposits that were 5-10 μm in diameter could be fluorescently visualized; also recorded: capable of binding to amyloid deposits in ex vivo human retinal tissue

Q: And the “fluorescent labelling of retinal Aβ deposits” value ([2]; mice that received a CCI, 24 hours after injury, retina ex vivo)?
A: fluorescently labeled these deposits and co-localized with 6E10 immunoreactivity

Q: What about the “fluorescence enhancement in retina” value ([2]; uninjured (sham) mouse) of the same compound?
A: did not display any fluorescence enhancement

Q: And the “detection of deposited aggregated proteins in retina” value [3]?
A: detected; also recorded: colocalized

Q: And the “fluorescent labelling of retinal Aβ deposits” value [4]?
A: fluoresces amyloid beta in retinal tissue of TBI blast mouse model; also recorded: has the ability to detect retinal amyloids present in a TBI mouse model

Q: And the “fluorescent labelling of retinal Aβ deposits” value ([4]; listed as ASF)?
A: fluorescently labels these retinal deposits

Q: And the “fluorescent labelling of retinal tissue” value [4]?
A: No visible fluorescence in normal mouse

Q: What about the “fluorescent labelling of retinal tissue” value ([4]; listed as ASF) of the same compound?
A: does not display any fluorescent enhancement

Q: And the “fluorescent labelling of amyloid beta in brain tissue” value ([5]; TBI blast mouse model)?
A: fluoresces amyloid beta in brain tissue of TBI blast mouse model

Q: What about the “fluorescent labelling of brain tissue” value ([5]; normal mouse) of the same compound?
A: No visible fluorescence in normal mouse
